Laboratory results taken from patent publication US9617213B2, “Synthetic analogues of xanthohumol” (UNIVERSITA' DI PISA, priority 2013, dated 2017).
Like-named read-outs stand apart in the source and are kept apart here.

Legend:
HUVEC cells [1] = assay: Invasion (chemoinvasion) assay, Boyden chambers, matrigel; type: cell-based, human; conditions: for reduction of endothelial cell invasion: 10 μM, HUVEC pre-treated for 24 hours, values standardised on control, FIG. 6; for invasion in the presence of serum (FBS): 24 hours' pre-treatment, even at 10 μM, *P<0.05, FIG. 3
Method: The chemoinvasion assay was conducted with Boyden chambers [Albini A, Iwamoto Y, Kleinman H K, Martin G R, Aaronson S A, Kozlowski J M, McEwan R N. A rapid in vitro assay for quantitating the invasive potential of tumor cells. Cancer Res. 1987 Jun. 15; 47(12):3239-45; Albini A, Benelli R. The chemoinvasion assay: a method to assess tumor and endothelial cell invasion and its modulation. Nat Protoc. 2007; 2(3):504-11]. The HUVEC cells (5×10^4) were pre-treated for 24 hours with the inhibitors, resuspended in serum-free medium, and plated in the upper compartment of the chamber. The complete medium was added in the lower compartment of the chamber, and used as chemoattractant. The 12 m polycarbonate filters were coated with matrigel (1 mg/mL). After 18 hours' incubation, the cells in the upper compartment of the chamber were mechanically removed, while those adhering to the lower surface of the filter were fixed in absolute ethanol and stained with DAPI. The cells were counted double-blind in eight consecutive fields by fluorescence microscopy.

fibrosarcoma cells [2] = conditions: 10 μM; cited from earlier work
[3] = tested on: hepatocarcinoma cell lines; conditions: 25 μM; cited from earlier work
endothelial cells [4] = conditions: cited from earlier work
MMP-9 = MMP-9 (Homo sapiens, UniProt P14780); conditions: 10 μM; cited from earlier work
hepatocytes = conditions: high concentrations (exceeding 100 μM); cited from earlier work
endothelial cells [5] = conditions: cited from earlier work; remark: listed apart in the source
endothelial cells [6] = conditions: cited from earlier work; remark: listed apart in the source
[7] = tested on: prostate cancer cell lines; conditions: 40 μM; cited from earlier work
MMP-2 = target: T1, MMP-2 (Homo sapiens, UniProt P08253); conditions: 10 μM; cited from earlier work
T1 sequence (P08253 110-660): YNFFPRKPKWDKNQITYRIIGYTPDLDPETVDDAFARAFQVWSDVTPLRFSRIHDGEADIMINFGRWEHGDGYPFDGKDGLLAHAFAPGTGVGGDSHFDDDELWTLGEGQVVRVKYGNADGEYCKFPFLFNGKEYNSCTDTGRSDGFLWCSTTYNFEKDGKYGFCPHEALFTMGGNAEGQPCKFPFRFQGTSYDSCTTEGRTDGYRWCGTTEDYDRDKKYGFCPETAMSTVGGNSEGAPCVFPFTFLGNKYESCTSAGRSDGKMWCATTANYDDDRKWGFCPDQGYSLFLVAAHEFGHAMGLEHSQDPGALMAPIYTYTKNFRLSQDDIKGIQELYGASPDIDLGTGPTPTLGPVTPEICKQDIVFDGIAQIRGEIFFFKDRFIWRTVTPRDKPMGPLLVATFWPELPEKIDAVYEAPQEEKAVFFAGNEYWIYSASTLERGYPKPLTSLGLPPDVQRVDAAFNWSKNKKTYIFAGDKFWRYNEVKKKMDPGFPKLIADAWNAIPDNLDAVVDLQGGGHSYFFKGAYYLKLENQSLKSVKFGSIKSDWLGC

HUVEC cells [8] = assay: Migration (chemotaxis) assay, Boyden chambers; type: cell-based, human; conditions: for reduction of endothelial cell migration: 10 μM, HUVEC pre-treated for 24 hours, values standardised on control, FIG. 7; for inhibition of migration: 24 hours' pre-treatment, 10 μM and 20 μM, *P<0.05, FIG. 2
Method: The chemotaxis assay was conducted with Boyden chambers [Albini A, Iwamoto Y, Kleinman H K, Martin G R, Aaronson S A, Kozlowski J M, McEwan R N. A rapid in vitro assay for quantitating the invasive potential of tumor cells. Cancer Res. 1987 Jun. 15; 47(12):3239-45; Albini A, Benelli R. The chemoinvasion assay: a method to assess tumor and endothelial cell invasion and its modulation. Nat Protoc. 2007; 2(3):504-11]. The HUVEC cells (5×10^4) were pre-treated for 24 hours with the inhibitors, resuspended in serum-free medium, and plated in the upper compartment of the Boyden chamber. The complete medium was added in the lower compartment of the chamber, and used as chemoattractant. The two chambers were separated by polycarbonate filters ([…]) coated with collagen (50 μg/mL). After 6 hours' incubation at 37° C., the filters were recovered, the cells present on the upper surface of the filter were mechanically removed, and those on the lower surface were fixed in absolute ethanol and stained with DAPI. The cells were then counted in eight consecutive fields on each filter by fluorescence microscopy.

fibrosarcoma cells [9] = conditions: cited from earlier work
HUVEC cells [10] = assay: MTT colorimetric viability assay; type: cell-based, human; conditions: for inhibition of cell growth: 20 μM, after 24 hours' treatment, FIG. 1
Method: The viability of the HUVEC cells was evaluated with the MTT colorimetric assay (3-(4,5-dimethylthiazol-2-yl)-2,5-diphenyltetrazolium bromide). The cells (1000/well) were plated in complete medium in 96-well plates, and after complete adherence the medium was replaced with a new medium with or without the various inhibitors at different concentrations. The plates were processed at different incubation times (24, 48, 72 and 96 hours), and the absorbance was measured at 570 nm.

HUVEC cells [11] = assay: Apoptosis assay (Annexin V / 7-AAD cytofluorimetry); type: cell-based, human; conditions: 10 μM, 24 hours, FIG. 5
Method: (§1) The HUVEC cells (1×10^5) were plated in six-well plates and left to adhere for 18 hours. The next day, the cells were pre-treated with inhibitors LR6 and LR7 (10 μM) in the presence of complete medium. After 24 hours, the cells were detached, washed with PBS and transferred to tubes for cytofluorimetric analysis. The cells were pelletted and resuspended in Annexin V-binding buffer (0.01M HEPES (4-(2-hydroxyethyl)-1-piperazineethanesulphonic acid) (pH 7.4); 0.14 M NaCl; 2.5 mM CaCl2. Fluorescein isothiocyanate Annexin V and 7-amino-actinomycin D were added to the tubes, and the cells were incubated for 15 minutes at room temperature in the dark. The cells were then washed in PBS, the supernatant was removed and the cells resuspended in […] of binding buffer. The samples were analysed on a FACSCanto cytofluorimeter (BD Biosciences), and analysed with FACSDiva Software 6.1.2.

[12] = as above; type: cell-based, human; conditions: human, HUVEC cells, FIG. 5, read-out: percentage of viability
Method: as §1

HUVEC cells [13] = assay: Morphogenesis on matrigel (capillary-like structures); type: cell-based, human; conditions: 24 hours' pre-treatment, FIG. 4
Method: A 24-well plate was coated with 300 μl/well of liquid matrigel (10 mg/mL) at 4° C., using cold pipettes and avoiding bubbles. The plate was then incubated for one hour at 37° C., until the matrigel polymerised. The HUVEC cells, pre-treated with the different inhibitors, were resuspended in 1 mL of complete medium and then plated in the different wells. The serum-free medium was used as negative control (CTRL−). After 6 hours' incubation, the organisation of the cells in capillary-like structures was examined with an inverted microscope equipped with a camera for the acquisition of images and a digital analysis system.

MMP-9, sequence (P14780 94-707, species assumed): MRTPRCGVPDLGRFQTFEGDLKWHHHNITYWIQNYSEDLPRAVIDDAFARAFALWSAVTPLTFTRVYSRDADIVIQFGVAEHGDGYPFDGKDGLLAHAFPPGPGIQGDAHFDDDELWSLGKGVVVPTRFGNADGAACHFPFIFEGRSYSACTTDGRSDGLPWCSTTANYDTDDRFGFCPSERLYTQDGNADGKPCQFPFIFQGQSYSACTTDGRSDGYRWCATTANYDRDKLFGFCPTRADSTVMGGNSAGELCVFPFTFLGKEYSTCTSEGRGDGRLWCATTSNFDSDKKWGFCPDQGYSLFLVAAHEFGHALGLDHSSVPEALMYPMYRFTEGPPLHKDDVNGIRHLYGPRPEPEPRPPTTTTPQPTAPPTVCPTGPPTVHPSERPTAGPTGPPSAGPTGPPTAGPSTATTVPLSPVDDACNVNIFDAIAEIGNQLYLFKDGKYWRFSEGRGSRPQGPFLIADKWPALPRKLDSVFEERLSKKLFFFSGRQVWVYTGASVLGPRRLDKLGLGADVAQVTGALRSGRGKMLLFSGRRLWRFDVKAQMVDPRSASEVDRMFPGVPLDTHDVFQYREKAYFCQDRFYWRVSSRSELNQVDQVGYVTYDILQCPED

COc1cc(O)c(CC=C(C)C)c(O)c1C(=O)/C=C/c1ccc(F)c(F)c1 [LR16, (E)-3-(3,4-difluorophenyl)-1-[2,4-dihydroxy-6-methoxy-3-(3-methyl-but-2-enyl)-phenyl]-prop-2-en-1-one]
reduction of endothelial cell invasion (HUVEC cells [1]): about 80%

COc1cc(O)c(CC=C(C)C)c(O)c1C(=O)/C=C/c1ccc(O)cc1 [XN, Xanthohumol]
invasion by fibrosarcoma cells (fibrosarcoma cells [2]): inhibits invasion
apoptosis [3]: induces apoptosis
chemotaxis of the endothelial cells and invasion in vitro (endothelial cells [4]; 5 μM): inhibits chemotaxis
chemotaxis of the endothelial cells and invasion in vitro (endothelial cells [4]; 10 μM): complete inhibition
activity of MMP-9 (MMP-9): inhibits
viability of the hepatocytes (hepatocytes): no effect on the viability
cytotoxic activity against activated endothelial cells (endothelial cells [5]; 10 μM): potent cytotoxic activity
concentration at which cell death is observed (endothelial cells [5]): exceeding 25 μM
effect on endothelial cells at lower concentrations (endothelial cells [5]; concentrations lower than 10 μM, even after long exposure times): does not exhibit any significant effect
toxicity (endothelial cells [6]; 200 μM): no toxicity was observed
concentration interval in which effects on morphogenesis are evident (endothelial cells [6]): 5 to 10 µM
growth of prostate cancer cell lines [7]: inhibitory effect
activity of MMP-2 (MMP-2): strongly inhibited
reduction of endothelial cell migration (HUVEC cells [8]): about 50%
reduction of endothelial cell invasion (HUVEC cells [1]): about 60%

COc1cc2c(c(O)c1C(=O)/C=C/c1ccc(O)cc1)C=CC(C)(C)O2 [XNC, xanthohumol C]
cytotoxic effect (fibrosarcoma cells [9]): loss of cytotoxic activity

COCOc1cc(OC)c(C(=O)/C=C/c2ccc(F)cc2F)c(OCOC)c1CC=C(C)C [LR17, (E)-3-(2,4-difluoro-phenyl)-1-[6-methoxy-2,4-dimethoxymethyloxy-3-(3-methyl-but-2-enyl)phenyl]-prop-2-en-1-one]
reduction of endothelial cell invasion (HUVEC cells [1]): ~75%

COCOc1cc(OC)c(C(=O)/C=C/c2ccc(F)cc2)c(O)c1CC=C(C)C [LR7, (E)-3-(4-fluorophenyl)-1-[2-hydroxy-6-methoxy-4-(methoxymethyloxy)-3-(3-methyl-but-2-enyl]-phenyl)prop-2-en-1-one]
inhibition of cell growth (HUVEC cells [10]): Significant inhibition of cell growth
cytostatic activity (HUVEC cells [10]; 10 and 20 μM, after 48 hours' incubation): exhibited cytostatic activity
apoptosis (HUVEC cells [11]): absence of apoptosis
viability at 24 h, 10 µM [12]: ~90%
inhibition of migration (HUVEC cells [8]): Significant inhibition of migration
invasion in the presence of serum (FBS) (HUVEC cells [1]): significantly reduces invasion
FBS-dependent morphogenesis (HUVEC cells [13]): interferes with FBS-dependent morphogenesis

COc1cc(O)c(CC=C(C)C)c(O)c1C(=O)/C=C/c1ccc(F)cc1 [LR6, (E)-1-[2,4-dihydroxy-6-methoxy-3-(3-methyl-but-2-enyl)prenyl]-3-(4-fluorophenyl)-prop-2-en-1-one]
cell proliferation (HUVEC cells [10]; 10 μM, after 72 and 96 hours' treatment): able to reduce cell proliferation
inhibition of cell growth (HUVEC cells [10]): Significant inhibition of cell growth
apoptosis (HUVEC cells [11]): absence of apoptosis
viability at 24 h, 10 µM [12]: ~90%
reduction of endothelial cell migration (HUVEC cells [8]): ~75%
inhibition of migration (HUVEC cells [8]): Significant inhibition of migration
invasion in the presence of serum (FBS) (HUVEC cells [1]): significantly reduces invasion
FBS-dependent morphogenesis (HUVEC cells [13]): interferes with FBS-dependent morphogenesis

O-methylxanthohumol ether SEM [XN-SEM]
cytotoxic effect (fibrosarcoma cells [9]): no cytotoxic effect

COc1cc(O)c(CC=C(C)C)c(O)c1C(=O)/C=C/c1ccc(F)cc1F [LR19, (E)-3-(2,4-difluorophenyl)-1-[2,4-dihydroxy-6-methoxy-3-(3-methyl-but-2-enyl)-phenyl]-prop-2-en-1-one]
reduction of endothelial cell migration (HUVEC cells [8]): about 80%
